Results published in patent US12391683B2, “Therapeutic compounds and methods” (Actio Biosciences, Inc., priority 2022, dated 2025).
Where “and” joins values, the source holds several entries; their conditions need not be identical. Equal values may be shown once.

Assays:
[1] = target: recombinant human CYP3A4 enzyme (Homo sapiens, UniProt P08684); experiment: CYP3A4 incubation assay; type: in vitro ADME; design: Metabolic Stability in Recombinant Human CYP3A4 + NADPH (% remaining after 25 min): dose or concentration left out as unconfirmed
Description: Example 24. CYP3A4 Incubation Assay
Compounds (final concentration […]) were incubated in 100 mM phosphate buffer containing 100 pmol/mL recombinant human CYP3A4 enzyme for 0, 5, 10, 15 and 25 minutes.
Testosterone was used as positive control. Reaction was initiated by the addition of NADPH (final concentration […]) and carried out at 37° C. The reaction was stopped by the addition of 4 volumes of cold acetonitrile (with 100 nM alprazolam, 200 nM labetalol, 200 nM imipramine and 2 μM ketoprofen as internal standards). Samples were centrifuged at 3,220 g for 40 minutes to precipitate protein. 70 μL supernatant was transferred to the analysis plate containing 110 μL of acetonitrile for LC-MS/MS analysis.
The following table indicates the percentage remaining for the indicated examples after incubation with recombinant Human CYP3A4 after 25 minutes under the same conditions as described for Example […].

Hepatocytes [2] = experiment: Hepatocytes predicted clearance, human
Hepatocytes [3] = experiment: Hepatocytes predicted clearance, mouse
Hepatocytes [4] = experiment: Hepatocytes predicted clearance, rat
Hepatocytes [5] = experiment: Hepatocytes predicted clearance, cyno
Hepatocytes [6] = experiment: Hepatocytes predicted clearance, dog
Human TRPV4 = Human TRPV4 (Homo sapiens, UniProt Q9HBA0); experiment: TRPV4 calcium flux assay (FLIPR, antagonist mode); type: cell-based; design: HiBiT (inferred from the expression read-out); host or cells: HEK293T; conditions: HEK293T cells transfected with hTRPV4; antagonist mode vs EC80 of TRPV4 agonist; average of at least 3 separate experiments; read-out: Human TRPV4 Ca2+ Assay IC50
Description: Example 23. TRPV4 Calcium Assay Methods
Human embryonic kidney 293T (HEK293T/293T) cells are cultured in complete media (Dulbecco's Modified Eagle Medium (DMEM), containing 10% fetal bovine serum (FBS) and 1× penicillin-streptomycin) in a T-75 tissue culture flask. At 90% confluency, cells are detached using TrypLE™ Express cell dissociation buffer. TrypLE™ Express buffer is neutralized by adding culture media in excess. Cells are gently triturated and counted using trypan blue in a Countess 3 automated cell counter. Cells are transferred to a 50 mL conical tube and spun down at 1000 rotations per minute (RPM) for five minutes in a benchtop centrifuge. Media containing detaching enzyme is aspirated off the pellet, followed by resuspension to the desired concentration of 2×10^6 cells per mL in complete DMEM.
Transfection preparations were scaled using a combination of 6 μg of TRPV4 wild-type or mutant plasmid DNA, 36 μL of Fugene6 transfection reagent, and 1000 μL of OptiMEM media for every 2×10^6 cells needed. The transfection mix is left to incubate for 20 minutes at room temperature. Total seeding mixture (1000 μL 2×10^6 cells, 1000 μL transfection mix previously described, and 1000 μL complete DMEM) for one transfection is combined into a 15 mL conical tube. The cells and transfection plasmid are mixed thoroughly and dispensed into a reservoir. This is plated at 25 μL per well in a black 384, black-well, clear-bottom, tissue-culture treated plate. This yields approximately 16,000 cells per well. Plasmid DNA constructs were designed by Actio Biosciences in conjunction with Genscript, and generated by Genscript, for all hTRPV4 wild-type and hTRPV4 P/LP (ClinVar) mutations (G78W, P82S, T891, P97R, R186Q, R232C, R232P, R237G, R237Q, R237 L, R269C, R269H, R269S, G270V, R271P, F273 L, K276E, E278K, G280S, Y281S, R315G, R315W, R316C, R316H, R316 L, R316S, I331F, D333G, S403T, K403T, K407E, S542P, S542Y, L543R, Y591N, R594C, R594H, R594S, G600E, Y602C, R616Q, F617 L, L618P, V6201, A716S, A716T, L735R, T740I, R775K, W785R, E797D, E797K, P799A, P799R, P799S, P799 L, G800D, K801E, P827H, F471del, N797del). The remaining cells are plated in the same manner, in a 384, white-well, clear-bottom, tissue-culture treated plate for expression and relative cell number determination. Plates are placed in the incubator at 37° C. overnight.
Compounds were brought to 10 mM in DMSO. DMSO concentration was kept constant throughout the dilution of any compound. DMSO negative control and concentration-response curves were nanoliter-spotted via PICO8 automated dispenser at 5× test concentration into a 384w clear polypropylene plate containing 1×HBSS+20 mM HEPES buffer. A predetermined concentration equivalent to the EC80 of TRPV4 agonist on hTRPV4 was prepared at 6× in 1×HBSS+20 mM HEPES and loaded into a separate 384-well v-bottom polypropylene plate.
Approximately 18 hours post-transfection, the cell plates were removed from the incubator and equal volume (25 uL) Calcium 6 dye was gently added. Calcium 6 dye containing probenecid (final 5 mM) was prepared per manufacturer's instructions. Cell plate was returned to the incubator for 1 hour, at 37° C.
FLIPR Penta was programmed to add compound using the following settings • Pipettor Head=384 • Read Mode 1 Excitation Wavelength=470_495 • Read Mode 1 Emission Wavelength=515_575 • Read Mode 1 Exposure=0.1000 • Read Mode 1 Gain=6.50 • Read Mode 1 Excitation Intensity=20 • Volume of addition=12.5 μL • Height=40 μL • Speed=15 μL/second
Raw data was exported and analyzed for maximum signal (RFU) after agonist addition—the average baseline (RFU) in the first 15 seconds per well. Data was plotted in GraphPad Prism to determine EC50 or IC50 of the molecules.

[7] = human clinical trials, background statement; cited from earlier work
[8] = 100 pmol/mL recombinant human CYP3A4, 37° C., 0-25 min

Sequence of Human TRPV4 (Q9HBA0 whole entry): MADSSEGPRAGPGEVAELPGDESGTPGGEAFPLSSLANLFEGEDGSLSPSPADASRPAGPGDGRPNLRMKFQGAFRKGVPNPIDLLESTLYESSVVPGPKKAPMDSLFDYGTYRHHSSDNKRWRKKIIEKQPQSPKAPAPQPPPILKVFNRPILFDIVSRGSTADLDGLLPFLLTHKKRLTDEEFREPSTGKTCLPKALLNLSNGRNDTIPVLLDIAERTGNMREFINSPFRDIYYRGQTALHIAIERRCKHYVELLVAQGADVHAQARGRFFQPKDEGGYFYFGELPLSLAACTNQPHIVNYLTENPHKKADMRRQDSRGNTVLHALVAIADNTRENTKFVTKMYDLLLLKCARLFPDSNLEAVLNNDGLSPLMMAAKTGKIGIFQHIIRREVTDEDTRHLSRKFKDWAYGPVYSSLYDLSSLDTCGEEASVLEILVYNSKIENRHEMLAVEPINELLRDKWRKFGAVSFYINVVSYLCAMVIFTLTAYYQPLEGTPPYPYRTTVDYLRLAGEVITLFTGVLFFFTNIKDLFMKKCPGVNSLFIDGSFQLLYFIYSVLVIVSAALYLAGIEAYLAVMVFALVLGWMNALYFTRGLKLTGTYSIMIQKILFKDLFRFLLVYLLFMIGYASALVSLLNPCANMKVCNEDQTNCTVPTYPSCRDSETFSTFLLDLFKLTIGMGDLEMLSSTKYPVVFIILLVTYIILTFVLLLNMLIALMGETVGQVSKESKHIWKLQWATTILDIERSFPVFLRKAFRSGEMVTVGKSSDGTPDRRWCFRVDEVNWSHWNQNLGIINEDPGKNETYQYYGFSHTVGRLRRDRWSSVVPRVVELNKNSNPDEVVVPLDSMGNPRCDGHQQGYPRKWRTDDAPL
Sequence of recombinant human CYP3A4 enzyme (P08684 whole entry): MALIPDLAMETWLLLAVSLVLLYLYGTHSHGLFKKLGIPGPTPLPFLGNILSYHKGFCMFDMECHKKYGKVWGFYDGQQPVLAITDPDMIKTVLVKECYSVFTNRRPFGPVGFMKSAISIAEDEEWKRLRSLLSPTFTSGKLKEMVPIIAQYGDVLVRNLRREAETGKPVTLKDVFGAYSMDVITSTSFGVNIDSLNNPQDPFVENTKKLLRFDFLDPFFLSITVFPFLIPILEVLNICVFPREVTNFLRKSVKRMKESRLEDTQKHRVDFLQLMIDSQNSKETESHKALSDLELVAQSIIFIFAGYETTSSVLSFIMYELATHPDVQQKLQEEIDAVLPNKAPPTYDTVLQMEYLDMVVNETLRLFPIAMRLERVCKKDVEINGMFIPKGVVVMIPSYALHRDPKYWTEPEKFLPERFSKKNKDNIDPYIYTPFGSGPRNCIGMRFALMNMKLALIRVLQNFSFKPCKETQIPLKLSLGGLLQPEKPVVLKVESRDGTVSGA

Row | SMILES | CYP3A4 Clint [1, 8] | Hepatocytes predicted clearance in human (Hepatocytes [2]) [mL/min/kg] | Hepatocytes predicted clearance in mouse (Hepatocytes [3]) [mL/min/kg] | Hepatocytes predicted clearance in rat (Hepatocytes [4]) [mL/min/kg] | Hepatocytes predicted clearance in cyno (Hepatocytes [5]) [mL/min/kg] | Hepatocytes predicted clearance in dog (Hepatocytes [6]) [mL/min/kg] | IC50 (Human TRPV4) [nM] | Metabolic Stability in Recombinant Human CYP3A4 + NADPH (% remaining after 25 min) ([1]; recombinant Human CYP3A4 + NADPH) [%] | CYP3A4 Clint ([1]; human, recombinant enzyme) [μL/min/pmol CYP450] | Metabolic Stability in Recombinant Human CYP3A4 + NADPH (% remaining after 25 min) ([1]; human, recombinant enzyme) [%] | efficacy across several human disease indications [7]
1 | CC1(C)C[C@](C)(Cn2cnc3ccc(C#N)cc32)C[C@@]2(CN(c3cnc(C(C)(C)O)cn3)C(=O)O2)C1 (single isomer, unassigned) [Example 17] | 0.07, <0.07 μL/min/pmol CYP450 | 1.5 | 119 | 39.3 | 43.7 | 1.3 | 5740 | – | – | – | –
2 | CC(C)(O)c1cnc(N2C[C@@]3(CCC(F)(F)[C@H](Cn4cnc5ccc(C#N)cc54)C3)OC2=O)cn1 [Example 2, 1-(((5S,7S)-8,8-Difluoro-3-(5-(2-hydroxypropan-2-yl)pyrazin-2-yl)-2-oxo-1-oxa-3-azaspiro[4.5]decan-7-yl)methyl)-1H-benzo[d]imidazole-6-carbonitrile] | 0.08 μL/min/pmol CYP450 and < 0.07 μL/min/pmol CYP450 | < 0.17 | 31 | < 0.17 | 34.8 | 1.3 | 217 | – | – | – | –
3 | CC(C)(O)c1cnc(N2C[C@@]3(CCC(F)(F)[C@](C)(Cn4cnc5ccc(C#N)cc54)C3)OC2=O)cn1 [Example 15, 1-(((5S,7S)-8,8-Difluoro-3-(5-(2-hydroxypropan-2-yl)pyrazin-2-yl)-7-methyl-2-oxo-1-oxa-3-azaspiro[4.5]decan-7-yl)methyl)-1H-benzo[d]imidazole-6-carbonitrile] | 0.09 μL/min/pmol CYP450 and < 0.07 μL/min/pmol CYP450 | 3.83 | 27.8 | 4.5 | 28.3 | 4.33 | 8 | 91.3 | – | – | –
4 | CC(C)(O)c1cnc(N2C[C@@]3(CCC[C@](C)(Cn4cnc5ccc(C#N)cc54)C3)OC2=O)cn1 [GSK2798745, reference compound] | – | < 0.17 | 44.3 | 20.7 | 21.5 | 7.17 | 10 | – | 0.18 | 69.6 | failed to show efficacy
